Results: patent US8927024B1, “Antimicrobial polyanhydride nanoparticles” (priority 2009, dated 2015)
“And” between values parts separate entries of the source, which are not always exact repeats. Identical values can stand only once. Like-named read-outs stand apart in the source and are kept apart here.

How the values were obtained:
[1] = system: Brucella melitensis 16M; conditions: in vivo; cited from earlier work
[2] = system: Mycobacterium avium subsp. paratuberculosis (MAP); assay: Viability of MAP in broth culture (% live MAP by flow); conditions: for viability at 1.25 µg/mL / viability at 10 µg/mL: Mycobacterium avium, read-out: % live MAP (viability of MAP in broth)

Row | Compound | Log CFU/spleen [1] [Log CFU/spleen] | Reduction (log) [1] | Spleen wt [1] | antimicrobial activity in MAP cultures ([2]; FIG. 15, 10 μg/mL amikacin) | viability at 1.25 µg/mL ([2]; 24 h) [%] | viability at 10 µg/mL ([2]; 24 h) [%] | viability at 1.25 µg/mL ([2]; 48 h) [%] | viability at 10 µg/mL ([2]; 48 h) [%]
1 | gentamicin [Free GEN] | 6.77 ± 0.12 | 0.08 log and 0.04 log | 0.86 ± 0.05 g and 0.83 ± 0.26 g |  |  |  |  | 
2 | NCC[C@H](O)C(=O)N[C@@H]1C[C@H](N)[C@@H](O[C@H]2O[C@H](CN)[C@@H](O)[C@H](O)[C@H]2O)[C@H](O)[C@H]1O[C@H]1O[C@H](CO)[C@@H](O)[C@H](N)[C@H]1O [Soluble, amikacin] |  |  |  | minimal antimicrobial activity | 93.8 | 90.1 | 88.4 | 84.8
